Source: patent US20040209933A1, “Oxazole derivatives” (priority 2003, published 2004)

How the values were obtained:
QG56 cells = test: BrdU/Hoechst quenching assay, cell kinetic FACS analysis (G1 cell cycle arrest); type: cell-based; conditions: incubation for 24 h; for percentage of QG56 cells arrested in the first G1 phase, compared with reference compound: 3 μM; for n-fold increase of cells arrested in first cell cycle: compound concentration 3 μM, QG56 squamous cell carcinoma cells, Control (DMSO) = 1
Method: A squamous cell carcinoma cell line (e.g. QG 56) was cultivated in DMEM/10%FCS/2 mM glutamine at about 60% confluency. Exponentially growing cells were seeded at a density of 1×10^4 cells/cm^2 in 2 ml of medium per 6 wells. After 24 hours medium was replaced and compounds were added.
For the BrdU/Hoechst quenching assay the media were supplemented with […] and deoxycytidine, respectively. All experiments were performed in 6 well culture plates.
The cell culture setup is as described above. All compounds were dissolved in DMSO at a concentration of 10 mM.
Adherent cells were harvested at 24 h by trypsinization and cells from the supernatant were added to the population.
After centrifugation cell pellets were resuspended at 1-10×10^5 cells/ml in DNA-staining puffer (100 mM Tris pH 7.4, 154 mM NaCl, 1 mM CaCl2, 0.5 mM MgCl2, 0.2% BSA, 0.1% NP40) supplemented with 5 ug/ml RNAse A and 1.5 ug/ml Hoechst 33258. After 15 min propidium iodide was added to a final concentration of 1.5 ug/ml for another 15 min. The fluorochrome labeled cells were analysed on a flow cytometer (BD LSR) applying dual laser excitation (UV and 488 nm).
Compounds of Example 1, Example 2 and Example 4 were tested at a concentration of 3 μM.

## COc1ccc(C=Cc2nc(COc3ccc(CCCCn4ccnn4)cc3)co2)cc1 [Example 1, 1-[4-(4-{2-[2-(4-Methoxy-phenyl)-vinyl]-oxazol-4-ylmethoxy}-phenyl)-butyl]-1H-[1,2,3]triazole]
QG56 cells
  percentage of QG56 cells arrested in the first G1 phase, compared with reference compound: higher percentage
  n-fold increase of cells arrested in first cell cycle: 23.7 n-fold
other
  melting point: 148 to 151 °C

## FC(F)(F)Oc1ccc(C=Cc2nc(COc3ccc(CCCCn4ccnn4)cc3)co2)cc1 [Example 2, 1-[4-(4-{2-[2-(4-Trifluoromethoxy-phenyl)-vinyl]-oxazol-4-ylmethoxy}-phenyl)-butyl]-1H-[1,2,3]triazole]
QG56 cells
  percentage of QG56 cells arrested in the first G1 phase, compared with reference compound: higher percentage
  n-fold increase of cells arrested in first cell cycle: 19.2 n-fold
other
  melting point: 138 to 140 °C

## C(=Cc1nc(COc2ccc(CCCCn3ccnn3)cc2)co1)c1ccc2c(c1)OCO2 [Example 4, 1-(4-{4-[2-(2-Benzo[1,3]dioxol-5-yl-vinyl)-oxazol-4-ylmethoxy]-phenyl}-butyl)-1H-[1,2,3]triazole]
QG56 cells
  percentage of QG56 cells arrested in the first G1 phase, compared with reference compound: higher percentage
  n-fold increase of cells arrested in first cell cycle: 17.9 n-fold

## FC(F)(F)Sc1ccc(C=Cc2nc(COc3ccc(CCCCn4ccnn4)cc3)co2)cc1 [Example 5, 1-[4-(4-{2-[2-(4-Trifluoromethylsulfanyl-phenyl)-vinyl]-oxazol-4-ylmethoxy}-phenyl)-butyl]-1H-[1,2,3]triazole]
other
  melting point: 144 to 145 °C

## FC(F)(F)c1ccc(C=Cc2nc(COc3ccc(CCCCn4ccnn4)cc3)co2)cc1 [reference compound, 1-[4-(4-{2-[2-(4-Trifluoromethyl-phenyl)-vinyl]-oxazol-4-ylmethoxy}-phenyl)-butyl]-1H-[1,2,3]triazole, reference compound]
QG56 cells
  n-fold increase of cells arrested in first cell cycle: 17.2 n-fold
